Measured values as given in ChEMBL document CHEMBL3885881, “DrugMatrix”.

Species on record: Rattus norvegicus
Assay: DrugMatrix - Regimen: Daily Repeat
Type: toxicity, organism-based, Sprague-Dawley
Design: regimen Daily Repeat, gender Male, age 6-8 weeks
Conditions: in vivo, po, route oral GAVAGE, vehicle .5 % CMC; for ABSOLUTE BASOPHIL / ABSOLUTE EOSINOPHIL / ABSOLUTE LYMPHOCYTE / ABSOLUTE MONOCYTE / ABSOLUTE SEGMENTED NEUTROPHIL / BASOPHIL / EOSINOPHIL / ERYTHROCYTE COUNT / HEMATOCRIT / HEMOGLOBIN / LEUKOCYTE COUNT / LYMPHOCYTE / MEAN CORPUSCULAR HEMOGLOBIN / MEAN CORPUSCULAR HEMOGLOBIN CONCENTRATION / MEAN CORPUSCULAR VOLUME / MONOCYTE / NEUTROPHIL / NUCLEATED RED BLOOD CELLS / PLATELET COUNT: tissue Blood; for ALANINE AMINOTRANSFERASE / ALBUMIN / ALKALINE PHOSPHATASE / ASPARTATE AMINOTRANSFERASE / BLOOD UREA NITROGEN / CARBON DIOXIDE / CHLORIDE / CHOLESTEROL / CREATINE PHOSPHOKINASE / CREATININE / GLUCOSE / LACTATE DEHYDROGENASE / LIPASE / PHOSPHORUS / POTASSIUM / SODIUM / TOTAL BILIRUBIN / TOTAL PROTEIN / URIC ACID: tissue Plasma
[1] = 0 mg/kg, 72 h, dose level Control, time 3 day
[2] = 0 mg/kg, 120 h, dose level Control, time 5 day
[3] = 17 mg/kg, 72 h, dose level Low, time 3 day

CN1CCN(CCCN2c3ccccc3Sc3ccc(Cl)cc32)CC1 [PROCHLORPERAZINE]
ABSOLUTE BASOPHIL [1]: 0 CELLS/uL
ABSOLUTE EOSINOPHIL [1]: 0 CELLS/uL
ABSOLUTE LYMPHOCYTE [1]: 10913.67 CELLS/uL
ABSOLUTE MONOCYTE [1]: 85.33 CELLS/uL
ABSOLUTE SEGMENTED NEUTROPHIL [1]: 1401 CELLS/uL
BASOPHIL [1]: 0%
EOSINOPHIL [1]: 0%
ERYTHROCYTE COUNT [1]: 5.57 x10E6/uL
HEMATOCRIT [1]: 35.58%
HEMOGLOBIN [1]: 13.8 G/DL
LEUKOCYTE COUNT [1]: 12.4 x10E3/uL
LYMPHOCYTE [1]: 88%
MEAN CORPUSCULAR HEMOGLOBIN [1]: 24.78 pg
MEAN CORPUSCULAR HEMOGLOBIN CONCENTRATION [1]: 38.82 G/DL
MEAN CORPUSCULAR VOLUME [1]: 63.88 fL
MONOCYTE [1]: 0.67%
NEUTROPHIL [1]: 11.33%
NUCLEATED RED BLOOD CELLS [1]: 0 /100WBC
PLATELET COUNT [1]: 1162.33 x10E3/uL
ALANINE AMINOTRANSFERASE [1]: 53 u/L
ALBUMIN [1]: 4.17 G/DL
ALKALINE PHOSPHATASE [1]: 374.5 u/L
ASPARTATE AMINOTRANSFERASE [1]: 89.5 u/L
BLOOD UREA NITROGEN [1]: 16.33 mg/dL
CARBON DIOXIDE [1]: 29.17 mmol/L
CHLORIDE [1]: 97.67 MEQ/L
CHOLESTEROL [1]: 77 mg/dL
CREATINE PHOSPHOKINASE [1]: 464.83 u/L
CREATININE [1]: 0.14 mg/dL
GLUCOSE [1]: 164 mg/dL
LACTATE DEHYDROGENASE [1]: 155.5 u/L
LIPASE [1]: 9.17 u/L
PHOSPHORUS [1]: 12.4 mg/dL
POTASSIUM [1]: 6.91 MEQ/L
SODIUM [1]: 141.47 MEQ/L
TOTAL BILIRUBIN [1]: 0.2 mg/dL
TOTAL PROTEIN [1]: 5.95 G/DL
URIC ACID [1]: 1.72 mg/dL
ABSOLUTE BASOPHIL [2]: 0 CELLS/uL
ABSOLUTE EOSINOPHIL [2]: 20.5 CELLS/uL
ABSOLUTE LYMPHOCYTE [2]: 13871.67 CELLS/uL
ABSOLUTE MONOCYTE [2]: 60.5 CELLS/uL
ABSOLUTE SEGMENTED NEUTROPHIL [2]: 980.67 CELLS/uL
BASOPHIL [2]: 0%
EOSINOPHIL [2]: 0.17%
ERYTHROCYTE COUNT [2]: 5.65 x10E6/uL
HEMATOCRIT [2]: 35.63%
HEMOGLOBIN [2]: 14.08 G/DL
LEUKOCYTE COUNT [2]: 14.93 x10E3/uL
LYMPHOCYTE [2]: 92.83%
MEAN CORPUSCULAR HEMOGLOBIN [2]: 24.97 pg
MEAN CORPUSCULAR HEMOGLOBIN CONCENTRATION [2]: 39.55 G/DL
MEAN CORPUSCULAR VOLUME [2]: 63.13 fL
MONOCYTE [2]: 0.33%
NEUTROPHIL [2]: 6.67%
NUCLEATED RED BLOOD CELLS [2]: 0 /100WBC
PLATELET COUNT [2]: 1248.17 x10E3/uL
ALANINE AMINOTRANSFERASE [2]: 45.17 u/L
ALBUMIN [2]: 4.27 G/DL
ALKALINE PHOSPHATASE [2]: 405.67 u/L
ASPARTATE AMINOTRANSFERASE [2]: 74.17 u/L
BLOOD UREA NITROGEN [2]: 15.5 mg/dL
CARBON DIOXIDE [2]: 30.17 mmol/L
CHLORIDE [2]: 100.67 MEQ/L
CHOLESTEROL [2]: 57 mg/dL
CREATINE PHOSPHOKINASE [2]: 239.5 u/L
CREATININE [2]: 0.17 mg/dL
GLUCOSE [2]: 165.67 mg/dL
LACTATE DEHYDROGENASE [2]: 90.5 u/L
LIPASE [2]: 8.83 u/L
PHOSPHORUS [2]: 12.32 mg/dL
POTASSIUM [2]: 7.03 MEQ/L
SODIUM [2]: 142.65 MEQ/L
TOTAL BILIRUBIN [2]: 0.18 mg/dL
TOTAL PROTEIN [2]: 6.03 G/DL
URIC ACID [2]: 1.98 mg/dL
ABSOLUTE BASOPHIL [3]: 0 CELLS/uL
ABSOLUTE EOSINOPHIL [3]: 0 CELLS/uL
ABSOLUTE LYMPHOCYTE [3]: 10730.67 CELLS/uL
ABSOLUTE MONOCYTE [3]: 90 CELLS/uL
ABSOLUTE SEGMENTED NEUTROPHIL [3]: 1446 CELLS/uL
BASOPHIL [3]: 0%
EOSINOPHIL [3]: 0%
ERYTHROCYTE COUNT [3]: 5.49 x10E6/uL
HEMATOCRIT [3]: 34.9%
HEMOGLOBIN [3]: 13.83 G/DL
LEUKOCYTE COUNT [3]: 12.27 x10E3/uL
LYMPHOCYTE [3]: 87.67%
MEAN CORPUSCULAR HEMOGLOBIN [3]: 25.3 pg
MEAN CORPUSCULAR HEMOGLOBIN CONCENTRATION [3]: 39.67 G/DL
MEAN CORPUSCULAR VOLUME [3]: 63.77 fL
MONOCYTE [3]: 0.67%
NEUTROPHIL [3]: 11.67%
NUCLEATED RED BLOOD CELLS [3]: 0.33 /100WBC
PLATELET COUNT [3]: 1239 x10E3/uL
ALANINE AMINOTRANSFERASE [3]: 45 u/L
ALBUMIN [3]: 4.17 G/DL
ALKALINE PHOSPHATASE [3]: 413.67 u/L
ASPARTATE AMINOTRANSFERASE [3]: 85.33 u/L
BLOOD UREA NITROGEN [3]: 15.33 mg/dL
CARBON DIOXIDE [3]: 26 mmol/L
CHLORIDE [3]: 99.33 MEQ/L
CHOLESTEROL [3]: 67.67 mg/dL
CREATINE PHOSPHOKINASE [3]: 343 u/L
CREATININE [3]: 0.13 mg/dL
GLUCOSE [3]: 151 mg/dL
LACTATE DEHYDROGENASE [3]: 394.67 u/L
LIPASE [3]: 9.67 u/L
PHOSPHORUS [3]: 14.23 mg/dL
POTASSIUM [3]: 6.98 MEQ/L
SODIUM [3]: 143.17 MEQ/L
TOTAL BILIRUBIN [3]: 0.2 mg/dL
TOTAL PROTEIN [3]: 5.9 G/DL
URIC ACID [3]: 1.5 mg/dL
